US9951038B2, “Quinazolin-4(3H)-one-type piperidine compounds and uses thereof” (Purdue Pharma L.P., priority 2012, dated 2018)

Legend:
CYP2D6 = target: T1, CYP2D6 (Homo sapiens, UniProt P10635); experiment: Cytochrome P450 inhibition, pooled human hepatic microsome, CYP2D6 (dextromethorphan O-demethylation); type: in vitro ADME; details: 5 μmol/L dextromethorphan, 15 min, 37° C.
T1 construct: using commercially available pooled human hepatic microsome; from tissue; host or cells: pooled human hepatic microsomes

CYP2C9 = target: T2, CYP2C9 (Homo sapiens, UniProt P11712); experiment: Cytochrome P450 inhibition, pooled human hepatic microsome, CYP2C9; type: in vitro ADME
T2 construct: using commercially available pooled human hepatic microsome; from tissue; host or cells: pooled human hepatic microsomes

CYP3A4 = target: T3, CYP3A4 (Homo sapiens, UniProt P08684); experiment: Cytochrome P450 inhibition, pooled human hepatic microsome, CYP3A4; type: in vitro ADME
T3 construct: using commercially available pooled human hepatic microsome; from tissue; host or cells: pooled human hepatic microsomes

CYP1A2 = target: T4, CYP1A2 (Homo sapiens, UniProt P05177); experiment: Cytochrome P450 inhibition, pooled human hepatic microsome, CYP1A2; type: in vitro ADME
T4 sequence (P05177 1-516): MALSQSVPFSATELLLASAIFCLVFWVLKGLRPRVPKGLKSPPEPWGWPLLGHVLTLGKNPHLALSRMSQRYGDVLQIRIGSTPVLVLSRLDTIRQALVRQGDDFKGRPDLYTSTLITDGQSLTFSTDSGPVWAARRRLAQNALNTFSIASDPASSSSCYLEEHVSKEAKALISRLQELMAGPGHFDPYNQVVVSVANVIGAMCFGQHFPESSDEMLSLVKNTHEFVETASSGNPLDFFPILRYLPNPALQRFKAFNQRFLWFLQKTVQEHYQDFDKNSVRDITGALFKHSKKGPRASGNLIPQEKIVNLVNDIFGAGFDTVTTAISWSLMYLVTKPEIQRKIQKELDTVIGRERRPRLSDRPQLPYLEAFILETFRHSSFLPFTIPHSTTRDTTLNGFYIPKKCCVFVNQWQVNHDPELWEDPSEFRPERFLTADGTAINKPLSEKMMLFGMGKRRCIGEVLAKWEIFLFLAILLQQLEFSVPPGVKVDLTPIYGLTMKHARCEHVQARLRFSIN

Nociceptin receptor = Nociceptin receptor (Homo sapiens, UniProt P41146); experiment: biochemical
[1] = target: human opioid receptor-like (ORL-1) (Homo sapiens, UniProt P41146); experiment: In vitro ORL-1 receptor [35S]GTPγS functional assay; type: biochemical; details: for Emax: read-out: ORL-1 GTPγS Emax
Chain of human opioid receptor-like (ORL-1) (P41146 whole entry): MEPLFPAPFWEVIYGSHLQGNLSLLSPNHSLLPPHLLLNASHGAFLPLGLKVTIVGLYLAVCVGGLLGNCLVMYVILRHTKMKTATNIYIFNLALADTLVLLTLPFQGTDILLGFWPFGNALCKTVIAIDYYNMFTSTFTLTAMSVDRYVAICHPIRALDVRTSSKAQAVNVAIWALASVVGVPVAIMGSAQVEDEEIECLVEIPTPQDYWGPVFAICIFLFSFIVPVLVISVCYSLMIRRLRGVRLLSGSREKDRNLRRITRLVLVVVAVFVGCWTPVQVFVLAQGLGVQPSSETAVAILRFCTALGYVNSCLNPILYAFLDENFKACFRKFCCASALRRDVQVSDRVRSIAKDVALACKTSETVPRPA

T1 sequence (P10635 whole entry): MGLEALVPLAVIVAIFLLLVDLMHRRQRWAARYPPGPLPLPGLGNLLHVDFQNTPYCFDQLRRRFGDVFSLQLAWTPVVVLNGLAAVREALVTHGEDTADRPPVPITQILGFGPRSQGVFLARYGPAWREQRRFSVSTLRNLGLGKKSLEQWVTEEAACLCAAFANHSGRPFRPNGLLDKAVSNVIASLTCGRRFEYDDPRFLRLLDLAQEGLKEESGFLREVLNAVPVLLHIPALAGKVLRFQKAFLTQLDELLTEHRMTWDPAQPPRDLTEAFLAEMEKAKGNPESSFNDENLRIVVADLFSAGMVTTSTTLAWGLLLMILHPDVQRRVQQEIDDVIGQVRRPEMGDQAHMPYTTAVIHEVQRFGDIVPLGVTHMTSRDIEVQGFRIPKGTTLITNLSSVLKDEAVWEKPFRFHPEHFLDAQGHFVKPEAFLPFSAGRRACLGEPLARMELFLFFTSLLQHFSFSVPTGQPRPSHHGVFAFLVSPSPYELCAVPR
T3 sequence (P08684 whole entry): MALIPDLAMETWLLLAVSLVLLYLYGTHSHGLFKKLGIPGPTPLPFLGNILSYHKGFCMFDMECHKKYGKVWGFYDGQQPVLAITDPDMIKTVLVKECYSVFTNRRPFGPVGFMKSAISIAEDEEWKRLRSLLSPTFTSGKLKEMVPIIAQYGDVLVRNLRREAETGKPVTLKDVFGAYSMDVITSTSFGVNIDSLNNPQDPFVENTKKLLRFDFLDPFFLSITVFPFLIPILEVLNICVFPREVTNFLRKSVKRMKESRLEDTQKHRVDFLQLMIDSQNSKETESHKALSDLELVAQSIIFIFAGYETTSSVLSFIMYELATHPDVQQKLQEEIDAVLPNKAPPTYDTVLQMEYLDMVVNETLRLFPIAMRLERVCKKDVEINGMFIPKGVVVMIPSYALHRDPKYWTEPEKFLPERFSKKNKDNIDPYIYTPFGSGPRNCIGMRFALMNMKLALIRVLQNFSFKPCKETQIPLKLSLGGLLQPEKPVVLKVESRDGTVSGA
T2 sequence (P11712 whole entry): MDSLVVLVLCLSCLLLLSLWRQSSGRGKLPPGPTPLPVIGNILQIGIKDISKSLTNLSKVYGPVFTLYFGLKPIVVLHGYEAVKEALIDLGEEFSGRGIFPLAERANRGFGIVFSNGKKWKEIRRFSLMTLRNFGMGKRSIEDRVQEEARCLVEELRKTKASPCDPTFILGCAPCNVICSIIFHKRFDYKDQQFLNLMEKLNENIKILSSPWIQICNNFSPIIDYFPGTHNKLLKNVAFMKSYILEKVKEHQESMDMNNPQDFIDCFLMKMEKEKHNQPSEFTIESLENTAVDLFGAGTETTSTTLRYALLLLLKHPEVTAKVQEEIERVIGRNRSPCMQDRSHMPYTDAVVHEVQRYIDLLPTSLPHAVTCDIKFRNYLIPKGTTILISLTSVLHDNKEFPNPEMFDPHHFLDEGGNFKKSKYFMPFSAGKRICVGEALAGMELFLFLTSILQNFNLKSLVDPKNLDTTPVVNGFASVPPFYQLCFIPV
Chain of Nociceptin receptor (P41146 whole entry, looked up): as the sequence (P41146 whole entry) above

SMILES	IC50 (CYP2D6) [µM]	IC50 (CYP2C9) [µM]	IC50 (CYP3A4) [µM]	IC50 (CYP1A2) [µM]	Ki (Nociceptin receptor) [µM]	EC50 [1] [µM]	Emax [1] [%]
CCOC(=O)c1nc2ccccc2c(=O)n1C1C[C@H]2CCC[C@@H](C1)N2C1C[C@H]2CCC[C@@H](C1)C2 (stereo partly drawn) [8 (D12b), ethyl 3-((1R,1′R,3R,3′R,5S,5′S)-9′-aza[3,9′-bi(bicyclo[3.3.1]nonan)]-3′-yl)-4-oxo-3,4-dihydroquinazoline-2-carboxylate]	9.7	> 20	6.5	> 20	0.252		
O=C(O)CNC(=O)Cn1c(=O)n(C2C[C@H]3CCC[C@@H](C2)N3C2C[C@H]3CCC[C@@H](C2)C3)c(=O)c2ccccc21 (stereo partly drawn) [18 (D28a), 2-(2-(3-((1R,1′R,3r,3′R,5S,5′S)-[3,9′-bi(9′-azabicyclo[3.3.1]nonan)]-3′-yl)-2,4-dioxo-3,4-dihydroquinazolin-1(2H)-yl)acetamido)acetic acid]	1.6	> 20	> 20	> 20		> 20	1
O=C(O)Cn1c(=O)n(C2C[C@H]3CCC[C@@H](C2)N3C2C[C@H]3CCC[C@@H](C2)C3)c(=O)c2ccccc21 (stereo partly drawn) [15 (D3a), 2-(3-((1R,1′R,3r,3′R,5S,5′S)-[3,9′-bi(9′-azabicyclo[3.3.1]nonan)]-3′-yl)-2,4-dioxo-3,4-dihydroquinazolin-1(2H)-yl)acetic acid]	> 20	> 20	> 20	> 20		> 20	
CCC1C[C@@H]2CC(N3[C@@H]4CCC[C@H]3CC(n3c(=O)c5ccccc5n(CC(=O)O)c3=O)C4)C[C@H](C1)C2 (stereo partly drawn) [24 (D459a), 2-(3-((1R,1′R,3r,3′R,5S,5′S)-7-ethyl-[3,9′-bi(9′-azabicyclo[3.3.1]nonan)]-3′-yl)-2,4-dioxo-3,4-dihydroquinazolin-1(2H)-yl)acetic acid]	18.7	> 20	5.8	> 20	0.229	> 20	
O=C(O)c1nc2ccccc2c(=O)n1C1C[C@H]2CCC[C@@H](C1)N2C1C[C@H]2CCC[C@@H](C1)C2 (stereo partly drawn) [9 (D2b), 3-((1R,1′R,3R,3′R,5S,5′S)-[3,9′-bi(9′-azabicyclo[3.3.1]nonan)]-3′-yl)-4-oxo-3,4-dihydroquinazoline-2-carboxylic acid]	2.6	> 20	> 20	> 20		> 20	1
O=C(O)Cn1c(=O)n(C2C[C@H]3CCC[C@@H](C2)N3C2C[C@H]3CCCC[C@@H](C2)C3)c(=O)c2ccccc21 (stereo partly drawn) [21 (J3a), 2-(3-((1R,3R,5S)-9-((1R,6S,8r)-bicyclo[4.3.1]decan-8-yl)-9-azabicyclo[3.3.1]nonan-3-yl)-2,4-dioxo-3,4-dihydroquinazolin-1(2H)-yl)acetic acid]	> 20	> 20	2.3	5.5		> 20	
O=c1[nH]c2ccccc2c(=O)n1C1C[C@H]2CCC[C@@H](C1)N2C1C[C@H]2CCC[C@@H](C1)C2 (stereo partly drawn) [12 (D1a)]	8.9	> 20	> 20	> 20		> 20	1.33 ± 0.33
